Here are results for one compound from patent publication US9730445B2, “Herbicidal compositions comprising 4-amino-3-chloro-5-fluoro-6-(4-chloro-2-fluoro-3-methoxyphenyl) pyridine-2-carboxylic acid or a derivative thereof and fungicides” (DOW AGROSCIENCES LLC, priority 2013, dated 2017).

The experiment has as its system LEFCH. The experiment in a line: In-water applied weed control, transplanted paddy rice (greenhouse). Format: in vivo, Leptochloa chinensis (L.) Nees (Chinese sprangletop). How it is done: Weed seeds or nutlets of the desired test plant species were planted in puddled soil (mud) prepared by mixing a shredded, non-sterilized mineral soil (50.5 percent silt, 25.5 percent clay, and 24 percent sand, with a pH of about 7.6 and an organic matter content of about 2.9 percent) and water at a 1:1 volumetric ratio. The prepared mud was dispensed in 365 mL aliquots into 16-ounce (oz.) non-perforated plastic pots with a surface area of 86.59 square centimeters (cm^2) leaving a headspace of 3 centimeters (cm) in each pot. Rice seeds were planted in Sun Gro MetroMix® 306 planting mixture, which typically has a pH of 6.0 to 6.8 and an organic matter content of about 30 percent, in plastic plug trays. Seedlings at the second or third leaf stage of growth were transplanted into 860 mL of mud contained in 32-oz. non-perforated plastic pots with a surface area of 86.59 cm^2 4 days prior to herbicide application. The paddy was created by filling the headspace of the pots with 2.5 to 3 cm of water. When required to ensure good germination and healthy plants, a fungicide treatment and/or other chemical or physical treatment was applied. The plants were grown for 4-22 days in a greenhouse with an approximate 14 hour (h) photoperiod which was maintained at about 29° C. during the day and about 26° C. during the night. Nutrients were added as Osmocote® (17:6:10, N:P:K+minor nutrients) at 2 g per cup. Water was added on a regular basis to maintain the paddy flood, and supplemental lighting was provided with overhead metal halide 1000-Watt lamps as necessary. The plants were employed for testing when they reached the first through fourth true leaf stage. […]
Treatment requirements for each compound or fungicidal component were calculated based upon the rates being tested, the concentration of active ingredient or acid equivalent in the formulation, an application volume of 2 mL per component per pot, and an application area of 86.59 cm^2 per pot.
For formulated compounds, a measured amount was placed in an individual 100 or 200 mL glass vial and was dissolved in a volume of 1.25% (v/v) Agri-Dex® crop oil concentrate to obtain application solutions. […]
The treated plants and control plants were placed in a greenhouse as described above and water was added as needed to maintain a paddy flood. After approximately 3 weeks the condition of the test plants as compared with that of the untreated plants was determined visually and scored on a scale of 0 to 100 percent where 0 corresponds to no injury or growth inhibition and 100 corresponds to complete kill. […]

Each structure is given as a SMILES string.

On to `COc1c(Cl)ccc(-c2nc(C(=O)OCc3ccccc3)c(Cl)c(N)c2F)c1F` [Compound A Benzyl Ester], for which the “Visual Weed Control (%) - 19 DAA LEFCH Obs” value amounted to 3% (Compound A Benzyl Ester 8 g ae/ha) and 8% (Compound A Benzyl Ester 16 g ae/ha).
